In patent publication US10065990B2, “Cyclic peptide compound, and preparation method, pharmaceutical composition and use thereof” (HANGZHOU GUANYU BIO-MEDICAL CO., LTD, priority 2013, dated 2018) one finds IC50 and GI50 data, which are given here for five molecules.

SMILES strings stand for the structures. Like-named read-outs stand apart in the source and are kept apart here.

A word on the IC50: it is the point on the concentration scale where inhibition reaches its midpoint. By GI50 is commonly meant the concentration giving 50% growth inhibition.

The target of assay [1] is HDAC2 (Homo sapiens, UniProt Q92769). The assay is described as follows: HDAC biochemical activity measurement (fluorescent substrate deacetylation). The settings on record: 37° C. 30 minutes.
Assay [2] deals with K562 (human leukemia cells). As to the kind of experiment: MTT cancer cell growth inhibition. Format: cell-based. To be noted: Homo sapiens, K562, 72 h, MTT, 72 hours incubation, K562 cells; read-out: GI50 K562. In a few lines:
(§1)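 Using a 72 h MTT format, triplicate wells of 1500 cells received compound concentrations from 10^−5 to 10^−10 M. Formazan was read at 570 nm after DMSO dissolution, and GI50 was derived from viability.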

Assay [3] has as its system lncap (prostate cancer cells). The assay is described as follows: MTT cancer cell growth inhibition. Type of assay: cell-based. To be noted: Homo sapiens, LNCaP, 72 h, MTT, 72 hours incubation, read-out: GI50 lnca. The procedure, abridged: as §1
For assay [4], the system named is A549 (human lung cancer cells). As to the kind of experiment: MTT cancer cell growth inhibition. Format: cell-based. The settings on record: Homo sapiens, A549, 72 h, MTT, 72 hours incubation, read-out: GI50 A54. In a few lines:
as §1

The subject of assay [5] is PANC-1 (Pac-1, human pancreatic cancer cells). The assay is described as follows: MTT cancer cell growth inhibition. Type of assay: cell-based. The settings on record: Homo sapiens, PANC-1, 72 h, MTT, 72 hours incubation, read-out: GI50 PAN. In a few lines:
as §1

The test system of assay [6] is Bel-7402 (human hepatoma cells). As to the kind of experiment: MTT cancer cell growth inhibition. Format: cell-based. The settings on record: Homo sapiens, Bel-7402, 72 h, MTT, 72 hours incubation, Bel-7402 cells; read-out: GI50 Bel-7402. In a few lines:
as §1

The test system of assay [7] is HCC827 (human non-small cell lung cancer cells). The assay is described as follows: MTT cancer cell growth inhibition. Format: cell-based. To be noted: Homo sapiens, HCC827, 72 h, MTT, 72 hours incubation, HCC827 cells; read-out: GI50 HCC827. The procedure, abridged:
as §1

Assay [8] deals with H1975 (non-small cell lung adenocarcinoma). As to the kind of experiment: MTT cancer cell growth inhibition. Type of assay: cell-based. To be noted: Homo sapiens, NCI-H1975, 72 h, MTT, 72 hours incubation, H1975 cells; read-out: GI50 H1975. In a few lines: as §1
Assay [9] has as its system U937 (human leukemia cells). The assay is described as follows: MTT cancer cell growth inhibition. Type of assay: cell-based. The settings on record: Homo sapiens, U-937, 72 h, MTT, 72 hours incubation, read-out: GI50 U93. In a few lines:
as §1

For assay [10], the system named is DU145 (human prostate cancer cells). As to the kind of experiment: MTT cancer cell growth inhibition. Format: cell-based. To be noted: Homo sapiens, DU-145, 72 h, MTT, 72 hours incubation, read-out: GI50 Du1. In a few lines: as §1
In assay [11] the test system is MCF-7 (human breast cancer cells). The assay is described as follows: MTT cancer cell growth inhibition. Format: cell-based. The settings on record: Homo sapiens, MCF7, 72 h, 72 hours incubation, read-out: GI50 MCF. In a few lines:
as §1

The subject of assay [12] is MOLT-4 (human acute lymphoblastic leukemia cells). As to the kind of experiment: MTT cancer cell growth inhibition. Type of assay: cell-based. The settings on record: Homo sapiens, MOLT-4, 72 h, MTT, 72 hours incubation, read-out: GI50 Mol. In a few lines: as §1
Assay [13] addresses T1, HDAC11 (Homo sapiens, UniProt Q96DB2).
T1 sequence (Q96DB2 1-347): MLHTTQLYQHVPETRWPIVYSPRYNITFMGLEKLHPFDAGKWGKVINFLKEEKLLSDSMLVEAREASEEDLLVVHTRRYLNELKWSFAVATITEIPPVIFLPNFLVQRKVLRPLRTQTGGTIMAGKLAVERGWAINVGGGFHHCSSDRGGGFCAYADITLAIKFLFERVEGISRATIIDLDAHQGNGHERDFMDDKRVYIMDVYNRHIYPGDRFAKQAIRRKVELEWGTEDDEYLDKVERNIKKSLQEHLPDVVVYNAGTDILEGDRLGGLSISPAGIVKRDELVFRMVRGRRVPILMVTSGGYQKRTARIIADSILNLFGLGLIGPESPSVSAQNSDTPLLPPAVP
The assay is described as follows: HDAC biochemical activity measurement (fluorescent substrate deacetylation).
Description: The chemical activity of the compound is determined according to the degree of deacetylation inhibition of the HDAC enzyme. This experiment measured the degree of deacetylation related to tumor proliferation and metastasis of HDAC1, HDAC2, HDAC3, HDAC8, HDAC11 five subtypes HDAC enzymes. After the substrate containing an acetylated lysine side chain and HDAC enzyme are labeled with a fluorescent label, the fluorescent substrate is de acetyl. The fluorescent labeled substrate is cleaved by the enzyme, and the fluorescent substance is released, which generates 460 nm emission light under the excitation of 360 nm light.
HDAC substrate was diluted with reaction buffer to 200M (reaction concentration of 20M), the HDAC enzyme was diluted to the appropriate concentration, then added different concentrations of the test compounds and acted at 37° C. 30 minutes, and then added the same volume of 2-times concentration substrate developing solution (developer), incubated at room temperature for 15 minutes.

Where [14] appears, read: read-out: IC50 HDAC11, HDAC11, 37° C. 30 minutes.

Chain of HDAC2 (Q92769 whole entry, species assumed): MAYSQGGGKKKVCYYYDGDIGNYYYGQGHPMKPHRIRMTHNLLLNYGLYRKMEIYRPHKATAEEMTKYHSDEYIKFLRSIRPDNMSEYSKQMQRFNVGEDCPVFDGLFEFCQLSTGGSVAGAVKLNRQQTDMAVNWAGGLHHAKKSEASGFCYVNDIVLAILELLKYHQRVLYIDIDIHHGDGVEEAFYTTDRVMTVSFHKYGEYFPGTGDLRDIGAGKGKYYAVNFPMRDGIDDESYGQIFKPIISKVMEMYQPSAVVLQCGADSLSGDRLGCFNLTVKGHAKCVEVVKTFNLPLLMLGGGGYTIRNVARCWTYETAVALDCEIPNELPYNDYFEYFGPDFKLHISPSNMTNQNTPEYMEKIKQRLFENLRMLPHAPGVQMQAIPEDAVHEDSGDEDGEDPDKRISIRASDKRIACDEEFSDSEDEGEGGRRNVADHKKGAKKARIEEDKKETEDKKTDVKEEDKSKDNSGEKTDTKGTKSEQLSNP

On to `C/C=C1\NC(=O)c2nc(ccc2SC)CNC(=O)C[C@@H](/C=C/CCSC(=O)CCCCC)OC(=O)[C@H](C(C)C)NC1=O` [Compound 153], for which the results for the 50% inhibitory concentration (IC50) in [1] and in [13] were 31 nM and 72 nM, respectively. Also, the GI50 in [2] amounted to 32 nM; in assay [3] (lncap cells), 50 nM; in [4] (A549 cells) it was 30 nM; in [5] (PANC-1 cells), 20 nM; in assay [6] it was 96 nM; in assay [7], 28 nM. The concentration for 50% growth inhibition (GI50) in [8] was 31 nM; in [9] (U937 cells), 30 nM; in assay [10] (DU145 cells), 60 nM; in [11] (MCF-7 cells), 60 nM; in assay [12] (MOLT-4 cells), 80 nM.
For `C/C=C1\NC(=O)c2cccc(n2)CNC(=O)C[C@@H](/C=C/CCSC(C)=O)OC(=O)[C@H](CCCCNC(=O)OCC2c3ccccc3-c3ccccc32)NC1=O` [Compound 16], the IC50 came out at 56 nM in assay [1] and 95 nM in [13] (setting [14]). For the same molecule, the GI50 in [2] is 25 nM; in assay [3], 82100 nM; in assay [4], 4200 nM; in assay [5], 4100 nM; in assay [6] it was 91 nM; in assay [7], 49 nM. Also, the 50% growth inhibitory concentration (GI50) in assay [8] was determined as 39 nM; in assay [9], 17900 nM; in assay [10] it was 6100 nM; in assay [11], 49500 nM; in [12] it was 700 nM.
For the molecule `CC(=O)SCC/C=C/[C@@H]1CC(=O)NCc2cccc(n2)C(=O)NC(=C(C)C)C(=O)N[C@@H](C(C)C)C(=O)O1` [Compound 20], the IC50 in assay [1] amounted to 77 nM; in assay [13] (setting [14]), 87 nM. Further, the GI50 in assay [2] came out at 24 nM; in assay [3], 5100 nM; in assay [4], 320 nM; in [5], 10100 nM; in [6], 86 nM; in [7], 52 nM. Further, the GI50 in [8] is 35 nM; in assay [9] it was 20200 nM; in [10], 1980 nM; in [11] it was 1900 nM; in [12], 130 nM.
Take `C/C=C1\NC(=O)c2nc(ccc2F)CCNC(=O)C[C@@H](/C=C/CCSC(C)=O)OC(=O)[C@H](C(C)C)NC1=O` [Compound 103]: the half-inhibitory concentration (IC50) turned out to be 29 nM in assay [1] and 93 nM in assay [13]. The GI50 was 34 nM in assay [2]; 20 nM in assay [3]; 40 nM in assay [4]; 80 nM in assay [5]; 25 nM in assay [6]; 55 nM in [7]. Besides, the GI50 in assay [8] was 26 nM; in assay [9], 50 nM; in assay [10] it was 30 nM; in [11], 30 nM; in assay [12] it was 20 nM.
Consider `C/C=C1\NC(=O)c2cccc(n2)NC(=O)C[C@@H](/C=C/CCSC(C)=O)OC(=O)[C@H](C(C)C)NC1=O` [Example 22], for which the figures for the half-inhibitory concentration (IC50) in assay [1] and in [13] were 54 nM and 97 nM, respectively. Also, the GI50 in assay [2] came out at 34 nM; in assay [3] it was 390 nM; in assay [4], 1030 nM; in assay [5] it was 4070 nM; in assay [6], 84 nM; in assay [7], 59 nM. The GI50 came out at 41 nM in assay [8]; 120 nM in assay [9]; 40 nM in assay [10]; 1110 nM in [11]; 2060 nM in assay [12].
